Reference: patent US20130259929A1, “USE OF A PHOSPHOPEPTIDE ABLE TO BLOCK HER3/P85 INTERACTION FOR THE TREATMENT OF HER2 HYPER-EXPRESSING TUMOURS” (priority 2010, published 2013)
Non-standard residues stand in square brackets, D forms with d. No end group written: not given here. pY = N[C@@H](Cc1ccc(OP(=O)(O)O)cc1)C(=O)O

Tests used:
[1] = test system: PI3K activity measured as Akt phosphorylation; experiment: Akt phosphorylation (Western blot) after peptide transfection; assay type: cell-based, human
Protocol: (§1) Peptide transfection. In order to inhibit the p85 and ErbB3 interaction, MCF7, BT474 and MDA-MB-453 cell lines have been transfected using 80, 100, and 180 μg, respectively, of the following phosphopeptides:
(§2) Treatments and lmmunodecorations. […] Briefly the cells have been plated at 5×10^5 concentration in 60 mm plates. […] At the end of the treatment the cells have been lysed with RIPA buffer [150 mM NaCl, 1% NP-40, 0,5% sodium deoxycholate (DOC), 0.1% SDS, 50 mM TrisHCl (pH 8), 1 mM PMSF, 1 mM EGTA, 50 mM NaF, 50 mM Na3VO4 and protease inhibitors (Roche, Milano, IT)] in order to analyze the expression levels of phosphorylated and total ErbB-3, ErbB-2, ERK and HSP-70 proteins. In order to analyze the levels of Akt phosphorylation and expression, the cells have been lysed in NP-40 buffer [1% NP-40, 10% glycerol, 137 mM NaCl, 20 mM TrisHCl (pH 7.4), 50 mM NaF, 1 mM PMSF, 5 mM Na3VO4, protease inhibitors (Roche, Milano, IT)]. Cell lysates have been incubated on ice for 20 minutes and centrifuged at 14000 rpm for 20 minutes. RIPA buffer obtained cell extracts have been boiled for 5 minutes at 95° C., while NP40 buffer lysed samples have been boiled at 65° C. for 5 minutes. Samples have been subjected to SDS-PAGE and transferred on nitrocellulose filters (Bio-Rad, Milan, IT). Then the filters have been incubated with interest antibodies, washed and incubated with specific secondary horse radish peroxidase (HRP) conjugated antibodies. After thorough washing, nitrocellulose peroxidase activity has been detected by chemiluminescence (Lite-blot-Euroclone, Milano, IT)

[2] = target: T1, HER3 binding to GST-N-SH2p85 fusion protein (Homo sapiens, UniProt P27986); experiment: GST pull-down; conditions: lysates of BT474, MCF7 and MDA-MB-453 cells, in vitro (FIG. 2A, FIG. 3)
T1 construct: containing SH2 domains in N-terminal portion of p85 sub-unit
T1 sequence (P27986 333-428 limits assumed): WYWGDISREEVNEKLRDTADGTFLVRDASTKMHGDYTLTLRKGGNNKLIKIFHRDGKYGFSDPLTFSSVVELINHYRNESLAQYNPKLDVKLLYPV
Protocol: GST pull-down. MCF-7, BT474 and MDA-MB-453 cell lines have been washed 2 times with cold PBS and extracted with lysis buffer [(50 mM Tris HCl (pH 7.4), 250 mM NaCl, 0,1% Triton X-100, 5 mM EDTA, 50 mM NaF, 1 mM PMSF, 5 mM Na3VO4 and 50 mmol/L of protease inhibitors (Roche, Milano, IT)]. After 20 minute ice-cold incubation, the lysates have been clarified by centrifugation at 14000 rpm for 20 minutes. The cellular extracts (1 mg sample) have been incubated for 4 hours at 4° C. in the presence of GST bound gluthatione-agarose beads or GST-p85 fusion protein (kindly supplied by doctor S. Giordano), in the presence or absence of 1257 phosphopeptide or scr peptide used as control. Then the interaction complexes have been washed six times with lysis buffer and subsequently beads eluted using Laemli Buffer 2× [(140 mM SDS, 432 mM Glycerol, 1.6 mM Bromophenol blue, 120 mM Tris HCl (pH 6.8), 8% β-mercaptoethanol)]. The proteins have been separated using 8% SDS-PAGE and transferred on nitrocellulose filter. The filter has been then immunodecorated with anti ErbB3 antibody.
As in FIG. 2A is apparent that 1257 phosphopeptide effectively in vitro binds p85 sub-unit thus inhibiting HER3 receptor binding.

[3] = test system: MCF7/Luc cells; experiment: In vivo growth of peptide-transfected MCF7/Luc cells inoculated s.c.; set-up: species or system SCID mice; conditions: s.c. inoculation of transfected MCF7 cells
Protocol: Xeno-grafts. In vivo tests have been carried out using 40 day old SCID female mice (Harlan Laboratories, Milan, IT). At day 0, animals have been totally anesthetized with intramuscular injection of 400 μg/animal (average weight 25 g) of Zoletil (Virbac) containing 0.12% Xylor (Xylazine), and transplanted subcutaneously (s.c.), in intrascapular mouse region with pellet of […] (1.7 mg/sustained release pellet over 60 days, Innovative Research of America, Sarasota, Fla.). On the next day, 5×10^6 proliferating and scr and 1257 peptide previously transfected, as above described, MCF7 or BT474 cells, have been re-suspended in 0.1 ml of Matrigel (BD Biosciences) and subcutaneously inoculated in each mouse. […] Tumour growth has been monitored two times weekly using calibration along two orthogonal axes: length (L) and […]. The tumour volume (V) has been calculated using the formula V=L*(W2)/2. All the procedures relating to animals and treatment thereof have been carried out according institutional guidelines.
Generation of mammary tumour luminescent cells. Mammary tumour MCF7 cell lines stably transfected using pGL4.51 (luc2/CMV/Neo) expression vector, produced by Promega (Me, IT), have been transfected using scr or 1257 phosphopeptide ([…]×5×10^4 cells/mouse) and after 30 h subcutaneously inoculated in SCID mice (5×10^6 cells/mouse) in 200 μl (1:1 Matrigel: cell suspension in serum free medium). Mice have been in vivo imaged 20′ after inoculation and once weekly over 11 weeks. The animals have been anesthetized, as above reported, and subjected to intraperitoneal injection with 200 μl of luciferin (Caliper, Mi, IT); 10′ after incubation photon emission has been analyzed at 3′ minute exposure using Xenogen Ivis Lumina 2 machine. Growth of these cells has been monitored as reported in xenografts section.
Then it has been verified whether 1257 phosphopeptide was effective also in vivo. To this purpose immunocompromised SCID mice have been used. In the presence of oestrogen tablets, 5×10^6 control cells transfected with scr peptide or transfected with 1257 peptide have been injected subcutaneously between mouse scapulae. In order to verify the viability of phosphopeptide transfected cells in animals we have generated a stable luciferase gene expressing MCF7 cell line (MCF7/Luc).

[4] = test system: MAPK phosphorylation; experiment: MAPK (ERK1/2) phosphorylation (Western blot) after peptide transfection; assay type: cell-based, human; conditions: MCF7, BT474 and MDA-MB-453 cells (FIG. 4A); Herceptin where combined
Protocol: as §1
as §2, with “Samples have been subjected to SDS-PAGE and transferred on nitrocellulose filters (Bio-Rad, Milan, IT). Then the filters have been incubated with interest antibodies, washed and incubated with specific secondary horse radish peroxidase (HRP) conjugated antibodies.” left out

[5] = target: p85 (Homo sapiens, UniProt P27986); conditions: binding to p85; cited from earlier work
Sequence of p85 (P27986 whole entry): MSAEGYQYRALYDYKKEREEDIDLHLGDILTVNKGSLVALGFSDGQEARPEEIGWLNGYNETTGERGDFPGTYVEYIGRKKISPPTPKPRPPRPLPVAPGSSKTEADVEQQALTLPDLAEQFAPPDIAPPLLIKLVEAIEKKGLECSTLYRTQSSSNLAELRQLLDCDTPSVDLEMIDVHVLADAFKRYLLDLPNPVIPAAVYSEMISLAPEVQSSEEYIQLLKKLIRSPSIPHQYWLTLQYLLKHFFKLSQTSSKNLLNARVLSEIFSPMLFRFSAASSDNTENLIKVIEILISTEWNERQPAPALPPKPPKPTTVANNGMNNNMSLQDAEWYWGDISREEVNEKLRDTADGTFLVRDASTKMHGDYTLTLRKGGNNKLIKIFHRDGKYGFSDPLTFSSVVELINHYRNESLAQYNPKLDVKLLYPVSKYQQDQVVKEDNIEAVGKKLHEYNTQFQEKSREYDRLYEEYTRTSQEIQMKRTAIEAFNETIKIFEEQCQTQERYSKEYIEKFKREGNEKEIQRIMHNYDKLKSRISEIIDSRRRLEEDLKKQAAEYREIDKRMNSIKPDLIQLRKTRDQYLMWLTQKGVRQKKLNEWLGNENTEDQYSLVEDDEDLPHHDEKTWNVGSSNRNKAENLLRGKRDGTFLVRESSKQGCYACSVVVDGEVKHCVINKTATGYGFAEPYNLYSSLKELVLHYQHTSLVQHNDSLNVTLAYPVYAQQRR

| Substance | inhibition of Akt phosphorylation ([1]; MCF7 cells, 48 hr after Lipofectamine transfection (FIG. 3)) | inhibition of HER3 and p85 SH2 domain binding [2] | time after inoculation at which tumours were calibratable [3] | tumour take ([3]; SCID mice) | phosphorylation of Akt ([1]; MCF7, BT474 and MDA-MB-453 cells (FIG. 4A), Herceptin where combined) | MAPK phosphorylation [4] | association constant (Ka) [5] | inhibition of PI3K activity measured as inhibition level of Akt phosphorylation ([1]; MCF7 cells, peptide transfection at different doses (FIG. 12)) |
| --- | --- | --- | --- | --- | --- | --- | --- | --- |
| not phosphorylated 1257 peptide: Not phosphorylated 1257 peptide used as further negative control (RDGGGPGGDYAAMGACPA; not fully specified) [reference compound] | unable to inhibit Akt phosphorylation | does not inhibit p85 and ErbB-3 binding | – | – | – | – | – | – |
| PYQMRpYNADTDGERTTEP (PYQMR[pY]NADTDGERTTEP) [scr phosphopeptide, scramble (scr), i.e. not specific, phosphopeptide used as control, reference compound] | – | the binding is as efficient as in the absence of peptide | three | 100% | does not result in any effect | does not result in any effect | – | – |
| PTAGTTPDEDpYEYMNRQR (PTAGTTPDED[pY]EYMNRQR; listed as Homo sapiens) [1241 phosphopeptide, second HER3-derived phosphopeptide used for preliminary experiments, reference compound] | – | – | – | – | – | – | 824 | not suitable to remarkably inhibit PI3K activity |
